Values joined by “and” are separate entries in the source; they are usually repeats but may differ in a detail not shown here. Identical values can stand only once. Like-named read-outs stand apart in the source and are kept apart here.
Assays:
[1] = molecular target: T1, Recombinant PP1 (human PP1α residues 7–300) (Homo sapiens, UniProt P62136); assay: Surface plasmon resonance direct binding to immobilized PP1; details: SPR
T1 construct: human PP1α (residues 7–300); His; made in house; host or cells: BL21 (DE3) Escherichia coli, co-expressed with GroEL/GroES chaperones
T1 sequence (P62136 7-300): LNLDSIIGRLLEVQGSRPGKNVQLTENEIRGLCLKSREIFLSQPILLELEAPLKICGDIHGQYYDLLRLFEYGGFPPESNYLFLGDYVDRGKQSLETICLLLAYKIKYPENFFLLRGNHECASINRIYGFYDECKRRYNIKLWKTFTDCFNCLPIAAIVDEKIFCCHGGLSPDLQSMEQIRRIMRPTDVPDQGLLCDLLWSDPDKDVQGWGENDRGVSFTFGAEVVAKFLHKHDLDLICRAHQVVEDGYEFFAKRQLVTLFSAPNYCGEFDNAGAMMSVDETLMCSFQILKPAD
Experimental: PP1 was purified as previously described. BL21 (DE3) Escherichia coli cells (Invitrogen, Carlsbad, CA, USA) were -transformed with a vector expressing human PP1α (residues 7–300) and pGR07, which expresses GroEL/[…] chaperones (both gifts from Dr Mathieu Bollen and Monique Beullens, KU Leuven, Belgium). The cells were grown in media supplemented with 1 mM MnCl2 at 30°C to an A600 =0.5. Arabinose (2 g per L) was added to induce expression of the GroEL/GroES chaperones. When A600 =1 was reached, the cells were transferred to 10°C and PP1 expression was induced with 0.1 mM Isopropyl β-D-1-thiogalactopyranoside for 20 hrs. Harvested cells were lysed using sonication in a solution containing in 50 mM Tris-HCl (pH 8.0), 5 mM imidazole, 700 mM NaCl, 1 mM MnCl2, 0.1% Triton X-100 (v/v) and protease inhibitors. His-tagged PP1 was purified using a Ni-NTA IMAC column (Qiagen, Valencia, CA, USA). Purified PP1 was dialyzed and stored at −70°C in 50 mM Tris-HCl (pH 8.0), 5 mM imidazole, 700 mM NaCl and 1 mM MnCl2. PP1 activity was then assayed as previously described.
The SPR measurements were conducted on Biacore T200 instrument (GE Healthcare, Piscataway, NJ) at 25°C. Recombinant PP1 was immobilized on a CM5 chip by amine coupling (GE Healthcare). PP1 (200 nM) was captured on flow cell 2 in 10 mM acetate buffer, pH 5.0, supplemented with 2 mM MnCl2. […] Flow cell 1 was used as a reference surface to subtract background signal. Also injections of the buffer alone were used to provide double reference subtraction. […] For binding and kinetics experiments, all compounds were diluted in the running buffer, at 40 μM, 20 μM, 10 μM, 5 μM, 2.5 μM, 1.25 μM and 0 μM and then passed over the two flow cells at a flow rate of 100 μl/min for 60 sec. The number of response units was recorded after the subtraction of the reference flow cell's value (Fc2-1). Two repetitions were performed for each injection. Data were analyzed using the BiaEvaluation software of Biacore with a 1:1 binding model. […] All the small molecular weight compounds were used at 1 μM.

PP1 = molecular target: T2, PP1 (Homo sapiens, UniProt P62136); assay: SPR competition with pRb-Tat peptide for binding to PP1; details: compounds at 1 μM; for fold reduction of the binding of pRb-Tat to PP1: pRb-Tat 10-100 nM
T2 construct: human PP1α (residues 7–300); His; made in house; host or cells: BL21 (DE3) Escherichia coli, co-expressed with GroEL/GroES chaperones
T2 sequence (P62136 7-300): as above
Experimental: The SPR measurements were conducted on Biacore T200 instrument (GE Healthcare, Piscataway, NJ) at 25°C. Recombinant PP1 was immobilized on a CM5 chip by amine coupling (GE Healthcare). PP1 (200 nM) was captured on flow cell 2 in 10 mM acetate buffer, pH 5.0, supplemented with 2 mM MnCl2. The average amount of PP1 immobilized on the surface was 3160 RU. Flow cell 1 was used as a reference surface to subtract background signal. Also injections of the buffer alone were used to provide double reference subtraction. To measure the direct binding of small molecules to PP1, the two flow cells of the sensor chip were primed with running buffer (0.01 M HEPES pH 7.4, 0.15 M NaCl, 0.005% v/v Surfactant P20, 1% DMSO and 2 mM MnCl2). For binding and kinetics experiments, all compounds were diluted in the running buffer, at 40 μM, 20 μM, 10 μM, 5 μM, 2.5 μM, 1.25 μM and 0 μM and then passed over the two flow cells at a flow rate of 100 μl/min for 60 sec. The number of response units was recorded after the subtraction of the reference flow cell's value (Fc2-1). Two repetitions were performed for each injection. Data were analyzed using the BiaEvaluation software of Biacore with a 1:1 binding model. […] All the small molecular weight compounds were used at 1 μM.

[2] = molecular target: T3, QuantiLum Recombinant Luciferase (Photinus pyralis, UniProt P08659); assay: Purified luciferase inhibition in vitro; type: biochemical; details: for effect on luciferase activity in vitro: in words, 1E7-03 at concentrations below 100 μM; for IC50: purified luciferase, room temperature, 10 min
T3 construct: purchased
T3 sequence (P08659 whole entry): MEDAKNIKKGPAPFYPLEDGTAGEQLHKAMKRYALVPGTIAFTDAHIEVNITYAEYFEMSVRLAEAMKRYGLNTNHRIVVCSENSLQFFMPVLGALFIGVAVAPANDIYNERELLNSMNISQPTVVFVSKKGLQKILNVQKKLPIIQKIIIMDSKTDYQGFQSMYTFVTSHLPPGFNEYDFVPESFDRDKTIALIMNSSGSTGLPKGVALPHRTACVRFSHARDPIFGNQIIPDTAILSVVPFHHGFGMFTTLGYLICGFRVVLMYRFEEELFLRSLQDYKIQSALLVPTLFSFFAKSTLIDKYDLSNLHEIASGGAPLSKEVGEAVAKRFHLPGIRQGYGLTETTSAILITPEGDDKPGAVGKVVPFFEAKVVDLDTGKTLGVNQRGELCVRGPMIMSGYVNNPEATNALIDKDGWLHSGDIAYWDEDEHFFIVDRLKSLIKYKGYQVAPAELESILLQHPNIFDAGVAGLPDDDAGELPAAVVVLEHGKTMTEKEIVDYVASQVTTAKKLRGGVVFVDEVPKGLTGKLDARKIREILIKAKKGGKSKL
Experimental: QuantiLum Recombinant Luciferase (20 ng/ml in PBS) was added into 96-well plate (100 μl/well) and incubated with serial dilutions of the compounds or vehicle (DMSO) under room temperature for 10 min. 100 μl of reconstituted luciferase buffer (Luclite Kit, Perkin Elmer) was added to each well, incubated for another 10 min and luminescence was measured using Glo-Max Microplate Multimode reader (Promega).

CEM T cells = assay: Cellular permeability assay by LC/FT-MS; type: in vitro ADME; details: 10 μM, 24 hrs; for CEM T cell permeability, % of Total, Cells: accumulation in cell lysate
Experimental: CEM T cells were seeded in 6-well plates (0.5 × 10^6 cells/ml) and treated by 10 μM of the indicated compounds. Two samples were generated for each compound (in triplicates) obtained from cellular lysate and media sample. Cell culture media samples (100 μl) were collected from each well after 24 hrs of incubation and total protein was precipitated by the addition of 400 μl cold acetone. […] To obtain cell lysates, the cells were suspended in 300 μl cold whole cell lysis buffer (50 mM Tris-HCl, pH 7.5, 0.5 M NaCl, 1% NP-40, 0.1% SDS) and sonicated. A 100 μl aliquot of the cell lysate was combined with 400 μl cold acetone to precipitate proteins. All samples were centrifuged at 13,000 × g for 5 min. Supernatants containing compounds and their metabolites were collected and evaporated to dryness on SpeedVac concentrator. The dry pellet was reconstituted in 50 μl acetonitrile for LC/FT-MS analysis.

[3] = 1:1 binding model, 25°C, read-out: PP1 WT KD
[4] = as quoted in the discussion, read-out: KD

SMILES	Kd [1, 3] [µM]	Kd [1, 4] [µM]	fold reduction of the binding of pRb-Tat to PP1 (PP1)	effect on luciferase activity in vitro [2]	IC50 [2] [µM]	CEM T cell permeability, % of Total, Cells (CEM T cells; 37°C)	competition with pRb-Tat for binding to PP1 (PP1; in words)	times less efficient cellular accumulation than 1E7-03 (CEM T cells; CEM T cells)	CEM T cell permeability, % of Total, Media (CEM T cells; 37°C, amount in media) [%]
CCNC(=O)NC(=O)C(C)OC(=O)c1c2c(nc3ccccc13)/C(=C/c1ccc(OC)c(OC)c1)CC2 (stereo not shown) [1E7-03]	6.16	6.2	2-2.5 fold	no effect	> 180	3%			
COc1ccc(/C=C2\CCc3c2nc2ccccc2c3C(=O)OC(C)C(=O)O)cc1OC (stereo not shown) [DP1]	3.75	~4	10 fold		37		best competitor	more than 10 times	
COc1ccc(/C=C2\CCc3c2nc2ccccc2c3C(=O)O)cc1OC [DP3]	4.88	~4	2-2.5 fold		7.2				
COc1ccc(/C=C2\CCCc3c2nc2ccccc2c3C(=O)OC(C)C(=O)OC(C)(C)C)cc1OC (stereo not shown) [DP1-07]				did not inhibit		2.7% and 2.73%			97.27
